Literature values as cited in US20250161389A1, “Herbal composition for the treatment of malaria” (RNA Therapeutics, Inc., priority 2023, published 2025).

Tested on: Plasmodium
Conditions: isolated compound, best activity

Which IC50 does the source give for `C=C(C)[C@@H]1CC[C@@]2(C)[C@H]1[C@@H]1CC[C@@H]3[C@@]4(C)CCC(=O)C(C)(C)[C@@H]4[C@H](O)C[C@@]3(C)[C@]1(C)C[C@@H]2O` [resinone (39), resinone] here?
Its IC50 is under 1 µg/mL.
